The source of these data is US5232684A, “Labelled resiniferatoxin, compositions thereof, and methods for using the same” (priority 1990, dated 1993).

Usually Hill coefficient stands for the slope factor of the fitted curve. A word on the Kd: it is the concentration at which binding is half-saturated.

Data set [1] deals with capsaicin receptor (sheep DRG). Kind of data set: [^3H]RTX binding to sheep DRG membranes. Particulars: DRG from sheep.
In data set [2] the test system is capsaicin receptor (porcine DRG subcellular fractions). In kind it is binding, pig. The procedure: Subcellular fractions are prepared by a modification of the method of Bastiaensen et al. (Bastiaensen, E., Miserez, B. and De Potter, W., Subcellular fractionation of bovine ganglion stellatum: co-storage of noradrenaline, Met-enkephalin and neuropeptide Y in large `dense-cored` vesicles, Brain Res., 442 (1988) 124-130. ) Briefly: DRG are dissected free from capsule, cut into small pieces with scissors, and then homogenized with a teflon pestle (20 strokes) in ice-cold 0.25 M sucrose/ 20 mM Tris-Cl (pH 7.4) buffer. The homogenate is filtered over surgical gauze; it is then centrifuged for 10 min at 2000 gmax, giving a pellet P1, and again at 10 000 gmax for 15 min giving a pellet P2. The P1 and P2 pellets are saved as nuclear and mitochondrial fractions for binding studies. […]
The binding assays are carried out in a volume of 250 ul, containing assay buffer (same as the disrupting buffer but omitting DTT and EGTA and including 0.75 mM CaCl2), 26-30 ug of membrane protein and 0.25 mg/ml bovine serum albumin. […] An aliquot of 50 ul of the mixture is removed to determine total radioactivity. The filters are washed with 100 ml of ice-cold 20 mM Tris-Cl, pH 7 4, containing 0.1 mg/ml bovine serum albumin, and the bound radioactivity is determined by scintillation counting. Non-specific binding is determined in the presence of 100-1000 nM non-radioactive RTX. […]

Data set [3] addresses T1, capsaicin receptor (pig DRG membranes) (Sus scrofa, UniProt F1RLJ0).
T1 construct: tissue Mt; Airy Locker Co., Mt; Airy, MD; host or cells: pig dorsal root ganglia
As to the kind of experiment: biochemical. In kind it is binding. The procedure:
Membrane preparations are obtained from the DRG and Gasser ganglia of female Sprague-Dawley rats (250-300 g); animals are sacrificed by decapitation under ether anesthesia, the ganglia removed and collected into ice-cold disrupting buffer (5 mM KCl, 5.8 mM NaCl, 2 mM MgCl2, 12 mM glucose, 137 mM sucrose, 10 mM HEPES, 5 mM DTT, 2 mM EGTA, pH 7.4). After homogenization with the aid of a Polytron tissue homogenizer, samples are filtered over surgical gauze and then washed twice with the same buffer and stored at -70° C. Particulate fractions are obtained from other rat neural tissues (cerebellum, spinal cord, preoptic region, striatum, substantia nigra) and from DRG of pigs (Mt. Airy Locker Co., Mt. Airy, MD), sheep, cows (kindly provided by Dr. Solomon, USDA, Beltsville, MD), and chickens (Truslow Farms, Chesterton, MD) by a similar procedure.
Subcellular fractions are prepared by a modification of the method of Bastiaensen et al. (Bastiaensen, E., Miserez, B. and De Potter, W., Subcellular fractionation of bovine ganglion stellatum: co-storage of noradrenaline, Met-enkephalin and neuropeptide Y in large `dense-cored` vesicles, Brain Res., 442 (1988) 124-130. ) Briefly: DRG are dissected free from capsule, cut into small pieces with scissors, and then homogenized with a teflon pestle (20 strokes) in ice-cold 0.25 M sucrose/ 20 mM Tris-Cl (pH 7.4) buffer. The homogenate is filtered over surgical gauze; it is then centrifuged for 10 min at 2000 gmax, giving a pellet P1, and again at 10 000 gmax for 15 min giving a pellet P2. The P1 and P2 pellets are saved as nuclear and mitochondrial fractions for binding studies. The resulting supernatant is further centrifuged at 50 000 gmax for 60 min, and then the pellet is harvested as the plasma-membrane enriched microsomal fraction.
The binding assays are carried out in a volume of 250 ul, containing assay buffer (same as the disrupting buffer but omitting DTT and EGTA and including 0.75 mM CaCl2), 26-30 ug of membrane protein and 0.25 mg/ml bovine serum albumin. […] Tubes are kept on ice while the additions are made. The assay mixture is incubated for 10 min at 37° C.; it is then cooled on ice. 150 ul of the mixture is pipetted onto Whatman GF/C or GF/F glass fiber filters presoaked with 10 mg/ml bovine serum albumin in 20 mM Tris-Cl (pH 7.4) and filtered immediately. An aliquot of 50 ul of the mixture is removed to determine total radioactivity. The filters are washed with 100 ml of ice-cold 20 mM Tris-Cl, pH 7 4, containing 0.1 mg/ml bovine serum albumin, and the bound radioactivity is determined by scintillation counting. Non-specific binding is determined in the presence of 100-1000 nM non-radioactive RTX.
Binding data from saturation experiments using increasing concentrations of hot ligand are analyzed using the collection of computer programs described by McPherson (McPherson, G.A., Analysis of radioligand binding experiments: a collection of computer programs for the IBM PC, J.Pharmacol.Methods, 14 (1985) 213-228).
Scatchard and Hill transformations are performed by the Equilibrium Binding Data Analysis program referred to as EBDA. Data are further analyzed by the curvilinear regression program LIGAND (Munson, R.J. and Rodbard, D., LIGAND: a versatile computerized approach for characterization of ligand-binding systems, Anal.Biochem, 107 (1980) 220-239).
RTX binding is also analyzed in the presence of a fixed, low (60 pM or 300 pM) concentration of [^3 H]RTX and increasing concentrations of non-radioactive RTX or other ligand.

For data set [4], the system named is rat brain preoptic region. As to the kind of experiment: [^3H]RTX binding to rat brain preoptic region.
In the next data set the test system is rat cerebellum. Kind of data set: [^3H]RTX binding to rat cerebellum.
The next data set relates to striatum. As to the kind of experiment: [^3H]RTX binding to rat striatum.
Data set [5] addresses T2, capsaicin receptor (rat DRG) (Rattus norvegicus, UniProt O35433).
T2 construct: homotetramer
Kind of data set: RTX binding in DRG preparations after in vivo RTX treatment.

T1 sequence (F1RLJ0 1-841): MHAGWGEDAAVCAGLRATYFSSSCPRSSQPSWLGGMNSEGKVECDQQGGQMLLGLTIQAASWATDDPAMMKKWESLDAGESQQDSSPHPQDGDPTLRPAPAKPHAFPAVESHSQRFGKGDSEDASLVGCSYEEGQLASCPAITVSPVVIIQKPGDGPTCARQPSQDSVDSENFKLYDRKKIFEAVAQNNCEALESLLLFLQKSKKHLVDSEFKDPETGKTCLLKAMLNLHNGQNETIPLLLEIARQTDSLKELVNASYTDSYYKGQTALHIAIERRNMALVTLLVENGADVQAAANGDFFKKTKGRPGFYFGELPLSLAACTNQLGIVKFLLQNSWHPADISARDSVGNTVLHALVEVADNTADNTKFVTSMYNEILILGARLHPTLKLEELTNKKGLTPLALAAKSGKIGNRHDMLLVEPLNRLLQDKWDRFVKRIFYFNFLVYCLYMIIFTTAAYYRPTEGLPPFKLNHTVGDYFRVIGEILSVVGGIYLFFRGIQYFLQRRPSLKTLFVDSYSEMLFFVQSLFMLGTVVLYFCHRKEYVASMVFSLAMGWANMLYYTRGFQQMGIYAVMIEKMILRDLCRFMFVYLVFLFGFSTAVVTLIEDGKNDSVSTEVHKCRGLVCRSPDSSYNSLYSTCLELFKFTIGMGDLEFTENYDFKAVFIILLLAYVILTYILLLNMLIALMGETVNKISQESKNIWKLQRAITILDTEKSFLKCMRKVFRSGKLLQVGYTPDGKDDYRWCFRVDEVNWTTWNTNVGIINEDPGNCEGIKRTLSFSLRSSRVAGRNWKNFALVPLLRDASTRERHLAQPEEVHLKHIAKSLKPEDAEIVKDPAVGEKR
T2 sequence (O35433 whole entry): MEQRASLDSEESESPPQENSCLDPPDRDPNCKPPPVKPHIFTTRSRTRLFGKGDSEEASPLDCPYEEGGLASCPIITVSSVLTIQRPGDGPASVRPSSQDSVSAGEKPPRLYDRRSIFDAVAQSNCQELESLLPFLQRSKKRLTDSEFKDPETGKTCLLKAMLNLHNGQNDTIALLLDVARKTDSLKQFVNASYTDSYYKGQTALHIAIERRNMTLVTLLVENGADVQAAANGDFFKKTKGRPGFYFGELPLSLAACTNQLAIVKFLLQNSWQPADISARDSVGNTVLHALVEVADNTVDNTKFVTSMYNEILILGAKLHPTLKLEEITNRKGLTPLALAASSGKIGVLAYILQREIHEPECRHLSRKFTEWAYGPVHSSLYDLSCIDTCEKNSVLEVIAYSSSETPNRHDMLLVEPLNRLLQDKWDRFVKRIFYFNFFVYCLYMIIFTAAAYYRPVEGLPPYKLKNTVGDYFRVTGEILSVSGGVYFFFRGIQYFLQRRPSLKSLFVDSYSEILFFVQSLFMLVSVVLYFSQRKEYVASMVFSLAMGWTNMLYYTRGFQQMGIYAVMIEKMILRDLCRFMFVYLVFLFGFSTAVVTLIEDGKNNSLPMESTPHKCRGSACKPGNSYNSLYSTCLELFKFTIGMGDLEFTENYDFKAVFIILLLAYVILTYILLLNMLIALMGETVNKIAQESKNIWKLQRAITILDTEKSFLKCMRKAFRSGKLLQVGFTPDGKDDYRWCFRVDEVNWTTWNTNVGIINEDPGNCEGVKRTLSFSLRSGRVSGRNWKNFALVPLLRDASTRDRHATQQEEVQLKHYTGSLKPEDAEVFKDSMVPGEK

For the compound `C=C(C)[C@]12C[C@@H](C)[C@@]34O[C@](Cc5ccccc5)(O[C@@H]1[C@@H]3C=C(COC(=O)Cc1ccc(O)c(OC)c1)C[C@]1(O)C(=O)C(C)=C[C@@H]41)O2` [[^3 H]RTX, [^3 H]resiniferatoxin], the “specific binding” value is on record as “Specific binding is observed” in data set [1], “Specific binding is observed” in data set [3] (DRG from pigs) and “no specific binding” in the data set with rat cerebellum. In addition, in data set [2] (fixed 300 pM [^3H]RTX, preliminary), the “specific [^3H]RTX binding, microsomal/plasma membrane fraction over mitochondrial fraction” value is reported as 5 fold. Besides, in data set [2] (nuclear pellet), the “specific [^3H]RTX binding in the nuclear pellet” value is “No specific [^3 H]RTX binding”. Further, the “Bmax (summary)” value in data set [3] (pig DRG) was found to be 730 fmol/mg. Moreover, the “specific [^3H]RTX binding after heating of membranes” value in data set [3] (pig DRG membranes heated to 55° C. for 10-20 min, 2 experiments) is recorded as “completely inactivates”. Also, the “time at which specific binding is maximal” value in data set [3] (pig DRG membranes, 37° C.) came out at 10 min. In data set [3] (pig DRG, partially purified membrane preparations), this compound yielded a Hill coefficient of 0.9. The “Bmax (Scatchard analysis)” value in data set [3] (pig DRG, partially purified membrane preparations, 2 separate determinations) came out at 700 fmol/mg protein. For the same compound, the dissociation constant (Kd) in data set [3] (pig DRG, partially purified membrane preparations, 2 separate determinations, LIGAND, read-out: Kd (Scatchard analysis)) came to 1.7 nM. In data set [3] (pig DRG, mean±SEM, 4 determinations), the “Bmax (competition)” value was determined as 730±80 fmol/ mg protein. Further, the “detection of [^3H]RTX binding” value (in data set [4]; in the data set on striatum) was “very difficult” throughout. Moreover, the “[^3H]RTX binding sites in neonatally treated animals” value in data set [5] is listed as “very significant loss”.
